# “Also recorded” adds a separate entry of the source.
# Experiments:
# [1] = tested on: DLD-1 cells; assay: Flow cytometry assay with propidium iodide staining (apoptosis); format: cell-based, human; settings: DLD-1, 16 μM or 32 μM, 48 hours
# Experimental: (§1) Flow cytometry assay was assessed as previously described in reference (1.26). After the time periods indicated, the Compound X-treated and control cells were harvested and fixed in 75% ethanol. The fixed cells were stained in the buffer containing 0.1% Triton X-100, 0.2 mg/ml RNase A, and 50 μg/ml PI (propidium iodide) at 4° C. for 1 hour and were then examined by flow cytometry utilizing an Epics XL FACS (Beckman Coulter Inc., Miami, Fla.) and EXPO 32 software as described previously (1.26).
# (§2) Flow cytometry assay was carried out as described in Example 1.
# [2] = tested on: HCT116 wild-type cells; assay: as above; format: cell-based, human; settings: 48 h; for cell apoptosis: HCT116 WT
# Experimental: as §1, §2
# [3] = tested on: HT-29 cells; assay: as above; format: cell-based, human; settings: HT-29, 16 μM or 32 μM, 48 hours
# Experimental: as §1, §2
# [4] = tested on: p53, p21 and Bax; assay: Western Blotting, p53, p21 and Bax expression in HCT116 cells; format: cell-based, human; settings: HCT116 WT, 16 μM
# Experimental: (§3) Cellular protein extracts were prepared with cell lysis buffer (10 mM Tris-HCl, pH 7.4, 1% SDS, 1 mM Na3VO4) and resolved by SDS-PAGE. The membranes were probed with the indicated primary antibodies and HRP-conjugated secondary antibody. Signals were detected with the ECL western-blotting system as described in our previous reports (1.27, 1.28).
# [5] = tested on: HCT116 Bax−/− cells; assay: Anchorage-independent growth (soft agar) assay; format: cell-based, human; settings: soft agar 14 days
# Experimental: (§4) Anchorage-independent growth (soft agar assay) in soft agar was carried out as described in inventors' previous studies (1.25). Briefly, 1×10^4 cells mixed with various concentration of Compound X in 10% FBS BME containing 0.33% soft agar, was seeded over bottom layer of 0.5% agar in 10% FBS BME in each well of 6-well plates. […]
# [6] = tested on: FoxO3a; assay: FoxO3a transcription activity dependent luciferase (4×DBE) reporter assay in HCT116 cells; format: cell-based, human; settings: HCT116, 16 μM
# Experimental: (§5) HCT116 cells stably expressing the luciferase reporter constructs were seeded into 96-well plates (5×10^3/well) and subjected to compound treatment when the cultures reached 80˜90% confluence. Cellular lysates were prepared at the indicated time points, and the luciferase activities were determined by a luminometer (Wallac 1420 Victor 2 multilabel counter system) as described in our previous studies (2.24, 2.25). The results are expressed as a relative activity that is normalized to the control cells without treatment.
# [7] = tested on: p21 and p53; assay: Western Blot, p21 and p53 expression in Cl41 cells; format: cell-based, mouse; settings: Cl41, 2 to 32 μM, 24 hours
# Experimental: as §3
# (§6) See Example 1 for the method.
# [8] = tested on: p21 promoter; assay: p21 promoter-driven luciferase reporter in Cl41 cells; format: cell-based, mouse; settings: Cl41, 16 μM, time-dependent
# [9] = tested on: p53; assay: p53-luciferase reporter (PG13-luc) in Cl41 cells; format: cell-based, mouse; settings: Cl41, 16 μM
# [10] = tested on: AKT; assay: Western blot, AKT phosphorylation in HCT116 cells; format: cell-based, human; settings: HCT116, 16 μM
# Experimental: as §3, §6
# [11] = tested on: PUMA; assay: Western Blot, PUMA induction in WT and p53−/− HCT116 cells; format: cell-based, human; settings: 16 μM
# Experimental: as §3, §6
# [12] = tested on: PHLPP1; assay: Western blot, PHLPP1 protein expression in HCT116 cells; format: cell-based, human; settings: HCT116, 16 μM
# Experimental: as §3, §6
# [13] = tested on: Cl41 cells; assay: Cell cycle assay (flow cytometry, PI); format: cell-based, mouse; settings: 24 h, control 63.49%
# Experimental: Cell cycle assay was assessed as previously described in reference (3.16). After the time periods indicated, the Compound X-treated and control cells were harvested and fixed in 75% ethanol. The fixed cells were stained with propidium iodide (PI) solution at 4° C. for 30 minutes and were then examined by flow cytometry utilizing an Epics XL FACS (Beckman Coulter Inc., Miami, Fla.) and EXPO 32 software as described previously (3.17).
# To assess whether the inhibitory effects of Compound F on growth inhibition of Cl41 cells is mediated via alteration in cell cycle regulation, the inventors evaluated the effect of Compound F2 on cell cycle distribution. The Cl41 cells were synchronized by 0.1% FBS medium for 24 h, and then cultured with 1% FBS medium containing 8, 16, 32 μM of Compound F2 for 24 h.
# [14] = tested on: Cl41 cells; assay: EGF-induced cell transformation assay in soft agar; format: cell-based, mouse; settings: Cl41, 20 ng/ml EGF, dose-dependent
# Experimental: Anchorage-independent growth in soft agar was performed as described previously (3.15). Briefly, 2×10^4 cells mixed with various concentration of Compound X and 20 ng/ml EGF in 10% FBS […] (BMEM) containing 0.33% soft agar, was seeded over bottom layer of 0.5% agar in 10% FBS BMEM in each well of 6-well plates. The plates were incubated in 5% CO2 incubator at 37° C. for 3 weeks, and the colonies with more than 16 cells of each were scored and presented as colonies/1×10^4 cells.
# [15] = tested on: HCT116 PUMA−/− cells; assay: Flow cytometry assay with propidium iodide staining (apoptosis); format: cell-based; settings: Homo sapiens, HCT-116, 48 h, read-out: inhibition of cell apoptosis in PUMA−/− cells as compared to HCT116 WT
# Experimental: as §1, §2
# [16] = tested on: caspase-3 and PARP; assay: Western Blotting, cleavage of caspase 3 and PARP; format: cell-based, human; settings: 16 μM, colon cancer cells
# Experimental: as §3
# [17] = tested on: DLD-1 cells; assay: Anchorage-independent growth (soft agar) assay; format: cell-based, human; settings: DLD-1 (p53 mutant), 16, 32 μM, soft agar 2 weeks
# Experimental: as §4
# (§7) Anchorage-independent growth (soft agar assay) in soft agar was carried out as described in Example 1.
# [18] = tested on: HCT116 cells; assay: Anchorage-independent growth (soft agar) assay; format: cell-based, human; settings: HCT116, 16 and 32 μM, soft agar 2 weeks
# Experimental: as §4, §7
# [19] = tested on: HT-29 cells; assay: Anchorage-independent growth (soft agar) assay; format: cell-based, human; settings: HT-29 (p53 mutant), 16, 32 μM, soft agar 2 weeks
# Experimental: as §4, §7
# [20] = tested on: HCT116 PUMA−/− cells; assay: Anchorage-independent growth (soft agar) assay; format: cell-based, human; settings: HCT116 PUMA−/−, 16, 32 μM, soft agar 2 weeks
# Experimental: as §4, §7
# [21] = tested on: HCT116 p53−/− cells; assay: Flow cytometry assay with propidium iodide staining (apoptosis); format: cell-based, human; settings: 48 h
# Experimental: as §1
# [22] = tested on: HCT116 p21−/− cells; assay: as above; format: cell-based, human; settings: 32 μM, 48 h
# Experimental: as §1
# [23] = tested on: HCT116 Bax−/− cells; assay: as above; format: cell-based, human; settings: 48 h
# Experimental: as §1
# [24] = tested on: puma promoter; assay: PUMA promoter-driven luciferase reporter assay in HCT116 cells; format: cell-based, human; settings: HCT116, 16 μM
# Experimental: as §5
# [25] = tested on: leukemia cell; settings: involving activation of caspase-3 and downregulation of Bcl-2 mRNA; cited from earlier work
# [26] = mice; cited from earlier work
compound,measurement,setting,value
CC(=O)O[C@H]1C=CC(=O)O[C@H]1[C@@H](O)[C@H](F)c1ccccc1 [Compound F2],sub-G1 DNA content (apoptotic peak) vs vehicle control,[1],substantial increase in sub-G1 DNA content
same,sub-G1 DNA content (apoptotic peak) vs vehicle control,"[2]; HCT116, 16 μM or 32 μM",substantial increase in sub-G1 DNA content
same,cell apoptosis,[2]; 16 μM,18.30%
same,cell apoptosis,[2]; 32 μM,26.27%
same,sub-G1 DNA content (apoptotic peak) vs vehicle control,[3],substantial increase in sub-G1 DNA content
same,"p53, p21 and Bax protein levels",[4],increasing as time-dependent manner
same,colony formation,[5],only partially inhibit colony formation
same,FoxO3a transactivation,[6],significantly induced FoxO3a transactivation
same,expression levels of p21 and p53,[7],increased
same,p21 promoter transcription activity,[8],obvious induction of p21 promoter transcription activity
same,p53 transactivation,[9],significantly induced p53 transactivation
same,phosphorylation of AKT at Ser 473,[10],inhibited after exposure to Compound F2 for 12 h or longer
same,"PUMA protein induction, time",[11],≤ 12 h
same,PHLPP1 protein expression,[12],upregulated
same,proportion of cells in the G0/G1 phase,[13]; 8 μM,77.74%
same,proportion of cells in the G0/G1 phase,[13]; 16 μM,79.79%
same,proportion of cells in the G0/G1 phase,[13]; 32 μM,80.13%
same,EGF-induced cell transformation and colony formation on soft agar,[14],significantly repressed EGF-induced cell transformation and colony formation
same,inhibition at 16 µM,[15],> 90%
same,cleaved caspases-3 and PARP,[16],detected in a time-dependent manner from 24 h to 48 h; also recorded: detected in a time-dependent manner from 6 hours to 48 hours
same,anchorage-independent growth,[17],inhibit anchorage-independent growth
same,anchorage-independent growth (size and number of colonies) vs vehicle,[18],significantly restrained the size and number of colonies; also recorded: significantly decreased anchorage-independent growth
same,anchorage-independent growth,[19],inhibit anchorage-independent growth
same,"colony formation, sensitivity vs wild type cells",[20],significantly more resistant
same,cell apoptosis,[21]; 16 μM,7.41%
same,cell apoptosis,[21]; 32 μM,14.18%
same,cell apoptosis,[22],80.31%
same,cell apoptosis,[23]; 16 μM,1.00%
same,cell apoptosis,[23]; 32 μM,0.69%
same,puma promoter transcription activity,[24],markedly induction of puma promoter transcription activity
"CC(=O)O[C@H]1C=CC(=O)O[C@H]1C1OC1c1ccccc1 (some centres unmarked) [cheliensisin A, Cheliensisin A]",leukemia cell apoptosis,[25],induced leukemia cell apoptosis
same,in vivo antitumor effect,[26],potent in vivo antitumor effect

# — patent US9682947B2, “Substituted lactones for treating cancer” (KUNMING INSTITUTE OF BOTANY, CHINESE ACADEMY OF SCIENCES, priority 2013, dated 2017)
